According to article PMC11053489 (Viruses, 2024):
Read-outs that look alike come from different tables or passages of the source.

Experiments:
in vitro [1] = conditions: human
[2] = tested on: SARS-CoV-2 (hCoV-19/USA-WA1/2020) in Vero CCL-81 cells; assay: microbe, parasite or virus in culture; type: cell-based; conditions: for EC50: read-out: Vero CCL-81 SARS-CoV-2 EC50; for EC90: read-out: Vero CCL-81 SARS-CoV-2 EC90
in vitro [3] = conditions: human; remark: listed apart in the source
[4] = tested on: SARS-CoV-2 (hCoV-19/USA-WA1/2020) in Caco-2 cells
in vitro [5] = conditions: African green monkey
in vitro [6] = conditions: human, Caco-2
in vitro [7] = conditions: human; remark: listed apart in the source
in vitro [8] = conditions: human; remark: listed apart in the source
[9] = tested on: SARS-CoV-2 (hCoV-19/USA-WA1/2020) in Caco-2 cells; assay: microbe, parasite or virus in culture; conditions: Severe acute respiratory syndrome coronavirus 2, Caco-2, 72 h, read-out: Caco-2 SARS-CoV-2 EC50
[10] = tested on: SARS-CoV-2 (hCoV-19/USA-WA1/2020) in Calu-3 cells; assay: microbe, parasite or virus in culture; type: cell-based; conditions: for EC50: read-out: Calu-3 SARS-CoV-2 EC50
[11] = human, in vivo
[12] = Table 1; ref column Refs of Table 1; cited from earlier work
Huh-7 cells [13] = tested on: Huh-7 cells
[14] = in vivo, iv; cited from earlier work
[15] = tested on: primary human peripheral blood mononuclear cells (PBM)
[16] = human astrocytes and hBTEC; cited from earlier work
[17] = primary hepatocytes; cited from earlier work
[18] = following an IV infusion of remdesivir over 2 h, in vivo; cited from earlier work
[19] = tested on: primary human peripheral blood mononuclear cells (PBM); assay: MTS cytotoxicity assay, PBM cells; conditions: read-out: PBM CC50; 5 days
Huh-7 cells [20] = assay: MTS cytotoxicity assay, Huh-7 cells; conditions: read-out: Huh7 CC50; 4 days
CCRF-CEM cells [21] = assay: MTS cytotoxicity assay, CEM cells; conditions: read-out: CEM CC50; 4 days
CCRF-CEM cells [22] = tested on: CCRF-CEM cells
[23] = MTS cytotoxicity assay, Caco-2 cells; conditions: human
[24] = MTS cytotoxicity assay, PBM cells; conditions: human
[25] = tested on: COVID-19 / SARS-CoV-2 infection; conditions: with standard medical care versus placebo plus standard care, 38 ambulatory individuals; cited from earlier work
[26] = Peak plasma concentration; conditions: human, in vivo
[27] = MTS cytotoxicity assay, Calu-3 cells; conditions: human
[28] = MTS cytotoxicity assay, Huh-7 cells; conditions: human
[29] = MTS cytotoxicity assay, CEM cells; conditions: human
[30] = MTS cytotoxicity assay, Vero CCL-81 cells; conditions: African green monkey
[31] = Severe acute respiratory syndrome coronavirus 2, Table 1 drugs, MOI 0.1, 48 h, 2% FBS
[32] = Severe acute respiratory syndrome coronavirus 2, Calu-3, MOI 0.01, 72 h, 2% FBS

CC(c1cc2ccccc2s1)N(O)C(N)=O (centres unmarked) [Zileuton]
CC50 at 4 days (in vitro [1]): > 100 µM
EC50 [2, 31]: 6.7 µM
EC90 [2, 31]: 35.8 µM
CC50 at 3 days (in vitro [3]): 46.7 µM
Caco-2 Unbound Cmax/EC50 ([4]; Caco-2): 0.003
CC50 at 3 days (in vitro [5]): > 100 µM
CC50 at 3 days (in vitro [6]): > 100 µM
CC50 at 5 days (in vitro [7]): > 100 µM
CC50 at 4 days (in vitro [8]): > 100 µM
EC50 [9]: > 100 µM
EC50 [10, 32]: > 100 µM
Cmax (μM) {unbound} [11]: 0.16 µM
Fun (unbound fraction of drug in plasma) [12]: 0.07

O=c1nc(NO)ccn1[C@@H]1O[C@H](CO)[C@@H](O)[C@H]1O [NHC, β-D-N4-hydroxycytidine]
CC50 (Huh-7 cells [13]): 59.1 µM
plasma t1/2 [14]: 3.3 h
CC50 (Caco-2 cells): > 100 µM
CC50 (Vero CCL-81 cells): 18.8 µM
CC50 (Calu-3 cells): > 100 µM
CC50 [15]: 59.8 µM

O=c1nc(NO)ccn1[C@@H]1O[C@H](COP(=O)(O)OP(=O)(O)OP(=O)(O)O)[C@@H](O)[C@H]1O [NTP of NHC]
cellular t1/2 [16]: 4 to 5 h
cellular t1/2 [17]: 24 to 66 min

N#C[C@@]1(c2ccc3c(N)ncnn23)O[C@H](COP(=O)(O)OP(=O)(O)OP(=O)(O)O)[C@@H](O)[C@H]1O [GS-441524-TP]
t1/2 of GS-441524-TP in human blood mononuclear cells [18]: 36 to 43 h

Ivermectin
Huh7 CC50 {Unbound} (Huh-7 cells [13]): 5.6 {5.1} μM
CC50 [19]: 29.2 µM
EC50 [2]: 2.1 µM
EC90 [2]: 4.5 µM
Caco-2 Unbound Cmax/EC50 ([4]; Caco-2): 0.005
EC90 ([4]; Caco-2): 8.9 µM
EC50 ([4]; read-out: Caco-2 SARS-CoV-2 EC50): 4.5 µM
CC50 (Caco-2 cells): 5.8 µM
CC50 (Huh-7 cells [20]): 5.6 µM
CC50 (CCRF-CEM cells [21]): 12 µM
CC50 (Vero CCL-81 cells): 35.2 µM
Vero CC50 {Unbound} (Vero CCL-81 cells): 35.2 {31.9} μM
EC50 [10]: 6.2 µM
EC90 ([10]; read-out: Calu-3 SARS-CoV-2 EC90): 9.3 µM
CEM CC50 {Unbound} (CCRF-CEM cells [22]): 12 {9.5} μM
Fun (unbound fraction of drug in plasma) [12]: 0.07
CC50 (Calu-3 cells): 17.5 µM
PBM CC50 {Unbound} [15]: 29.2 {23.8} μM

Cc1cccc(Nc2ccccc2C(=O)O)c1C [Mefenamic acid]
CC50 at 3 days [23]: > 100 µM
CC50 at 5 days [24]: > 100 µM
EC50 [2, 31]: 87.6 µM
EC90 [2, 31]: > 100 µM
higher probability of achieving patient-acceptable symptoms on day 8 [25]: about 16 fold
Cmax (μM) {unbound} [26]: 1.58 µM
EC50 [9]: > 100 µM
CC50 at 3 days [27]: > 100 µM
CC50 at 4 days [28]: > 100 µM
CC50 at 4 days [29]: > 100 µM
EC50 [10, 32]: > 100 µM
CC50 at 3 days [30]: > 100 µM
Fun (unbound fraction of drug in plasma) [12]: 0.1
